Laboratory results published in patent US11780893B2, “Kv1.3 blockers” (Zealand Pharma A/S, priority 2019, dated 2023).
Bridge positions count the residues as written; N and C are the ends. Square brackets hold non-standard residues; d marks the D form. Peptide text beside a SMILES is read from it. Nle = CCCC[C@H](N)C(=O)O

Biological target: T1, human Kv1.3 voltage-gated K+ channel (Homo sapiens, UniProt P22001)
T1 construct: host or cells: CHO-DUKX
Test: cell-based
Conditions: inhibition of thallium flux, CHO-DUKX cells with human Kv1.3; read-out: IC50

T1 sequence (P22001 whole entry): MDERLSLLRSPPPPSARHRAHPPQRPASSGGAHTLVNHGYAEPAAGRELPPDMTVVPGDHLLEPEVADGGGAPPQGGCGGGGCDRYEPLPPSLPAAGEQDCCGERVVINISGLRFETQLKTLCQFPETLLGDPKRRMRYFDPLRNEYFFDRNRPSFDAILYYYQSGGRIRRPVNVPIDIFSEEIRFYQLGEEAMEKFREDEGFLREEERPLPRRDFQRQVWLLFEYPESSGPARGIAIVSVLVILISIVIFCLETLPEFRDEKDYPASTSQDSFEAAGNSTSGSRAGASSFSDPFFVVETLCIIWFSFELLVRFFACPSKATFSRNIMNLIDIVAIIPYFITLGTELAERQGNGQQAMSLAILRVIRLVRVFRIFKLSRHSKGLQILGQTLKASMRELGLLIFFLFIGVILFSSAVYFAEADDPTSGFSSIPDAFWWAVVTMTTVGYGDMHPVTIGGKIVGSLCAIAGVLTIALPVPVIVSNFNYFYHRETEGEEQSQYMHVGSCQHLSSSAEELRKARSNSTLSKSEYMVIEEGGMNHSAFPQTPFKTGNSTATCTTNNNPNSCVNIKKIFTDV

Row | Compound | IC50
1 | CCCC[C@H](NC(=O)[C@@H]1CCCN1)C(=O)N[C@@H](CCC(=O)O)C(=O)N[C@@H](CCCC)C(=O)N[C@@H](CCCNC(=N)N)C(=O)N[C@H]1CSSC[C@@H]2NC(=O)[C@H](CCCCN)NC(=O)CNC(=O)[C@H](Cc3ccccc3)NC(=O)[C@H]([C@@H](C)CC)NC(=O)[C@H](CO)NC(=O)CNC(=O)[C@H]([C@@H](C)CC)NC(=O)[C@H](C)NC(=O)[C@H](C)NC(=O)[C@H](CC(C)C)NC(=O)[C@@H]3CSSC[C@@H](C(=O)N[C@@H](Cc4ccc(O)cc4)C(=O)N4CCC[C@H]4C(=O)N[C@@H](CCCNC(=N)N)C(=O)N[C@@H](CO)C(=O)N[C@H](C(=O)O)[C@@H](C)O)NC(=O)[C@H](CCCCN)NC(=O)[C@H](CSSC[C@H](NC(=O)[C@H](CCC(=O)O)NC(=O)[C@H](C(C)C)NC(=O)[C@H](CO)NC(=O)[C@H](C)NC(=O)[C@H](CO)NC1=O)C(=O)N[C@@H](CCCCN)C(=O)N[C@@H](CCC(N)=O)C(=O)N[C@@H](CCCCN)C(=O)N3)NC(=O)[C@H](CCCCN)NC(=O)[C@H](CCCCN)NC(=O)[C@H](CC(N)=O)NC(=O)[C@H](CCCC)NC2=O [Compound 133] (H-P[Nle]E[Nle]RCSASVECKQKCLAAIGSIFGKC[Nle]NKKCKCYPRST-OH; disulfide 6-27, 12-32, 16-34) | 1.1 nM
2 | CCCC[C@H](NC(=O)[C@@H]1CCCN1)C(=O)N[C@@H](CCC(=O)O)C(=O)N[C@@H](CCCC)C(=O)N[C@@H](CCCNC(=N)N)C(=O)N[C@H]1CSSC[C@@H]2NC(=O)[C@H](CCCCN)NC(=O)CNC(=O)[C@H](Cc3ccccc3)NC(=O)[C@H]([C@@H](C)CC)NC(=O)[C@H](CO)NC(=O)CNC(=O)[C@H]([C@@H](C)CC)NC(=O)[C@H](C)NC(=O)[C@H](C)NC(=O)[C@H](CC(C)C)NC(=O)[C@@H]3CSSC[C@@H](C(=O)N[C@@H](Cc4ccc(O)cc4)C(=O)N4CCC[C@H]4C(=O)N[C@@H](CCCNC(=N)N)C(=O)N[C@@H](CCCNC(=N)N)C(=O)N[C@@H](Cc4ccc(O)cc4)C(=O)O)NC(=O)[C@H](CCCCN)NC(=O)[C@H](CSSC[C@H](NC(=O)[C@H](CCC(=O)O)NC(=O)[C@H](C(C)C)NC(=O)[C@H](CO)NC(=O)[C@H](C)NC(=O)[C@H](CO)NC1=O)C(=O)N[C@@H](CCCCN)C(=O)N[C@@H](CCC(N)=O)C(=O)N[C@@H](CCCCN)C(=O)N3)NC(=O)[C@H](CCCCN)NC(=O)[C@H](CCCCN)NC(=O)[C@H](CC(N)=O)NC(=O)[C@H](CCCC)NC2=O [Compound 134] (H-P[Nle]E[Nle]RCSASVECKQKCLAAIGSIFGKC[Nle]NKKCKCYPRRY-OH; disulfide 6-27, 12-32, 16-34) | 0.21 nM
3 | CCCC[C@H](NC(=O)[C@@H]1CCCN1)C(=O)N[C@@H](CCC(=O)O)C(=O)N[C@@H](CCCC)C(=O)N[C@@H](CCCNC(=N)N)C(=O)N[C@H]1CSSC[C@@H]2NC(=O)[C@H](CCCCN)NC(=O)CNC(=O)[C@H](Cc3ccccc3)NC(=O)[C@H]([C@@H](C)CC)NC(=O)[C@H](CO)NC(=O)CNC(=O)[C@H]([C@@H](C)CC)NC(=O)[C@H](C)NC(=O)[C@H](C)NC(=O)[C@H](CC(C)C)NC(=O)[C@@H]3CSSC[C@@H](C(=O)N[C@@H](Cc4ccc(O)cc4)C(=O)N4CCC[C@H]4C(=O)N[C@@H](CCCNC(=N)N)C(=O)O)NC(=O)[C@H](CCCCN)NC(=O)[C@H](CSSC[C@H](NC(=O)[C@H](CCC(=O)O)NC(=O)[C@H](C(C)C)NC(=O)[C@H](CO)NC(=O)[C@H](CO)NC(=O)[C@H](CO)NC1=O)C(=O)N[C@@H](CCCCN)C(=O)N[C@@H](CCC(N)=O)C(=O)N[C@@H](CCCCN)C(=O)N3)NC(=O)[C@H](CCCCN)NC(=O)[C@H](CCCCN)NC(=O)[C@H](CC(N)=O)NC(=O)[C@H](CCCC)NC2=O [Compound 135] (H-P[Nle]E[Nle]RCSSSVECKQKCLAAIGSIFGKC[Nle]NKKCKCYPR-OH; disulfide 6-27, 12-32, 16-34) | 0.336 nM
4 | CCCC[C@H](NC(=O)[C@@H]1CCCN1)C(=O)N[C@@H](CCC(=O)O)C(=O)N[C@@H](CCCC)C(=O)N[C@@H](CCCNC(=N)N)C(=O)N[C@H]1CSSC[C@@H]2NC(=O)[C@H](CCCCN)NC(=O)CNC(=O)[C@H](Cc3ccccc3)NC(=O)[C@H]([C@@H](C)CC)NC(=O)[C@H](CO)NC(=O)CNC(=O)[C@H]([C@@H](C)CC)NC(=O)[C@H](C)NC(=O)[C@H](C)NC(=O)[C@H](CC(C)C)NC(=O)[C@@H]3CSSC[C@@H](C(=O)N[C@@H](Cc4ccc(O)cc4)C(=O)N4CCC[C@H]4C(=O)N[C@@H](CCCNC(=N)N)C(=O)O)NC(=O)[C@H](CCCCN)NC(=O)[C@H](CSSC[C@H](NC(=O)[C@H](CCC(=O)O)NC(=O)[C@H](C(C)C)NC(=O)[C@H](CO)NC(=O)[C@H](CC(C)C)NC(=O)[C@H](CO)NC1=O)C(=O)N[C@@H](CCCCN)C(=O)N[C@@H](CCC(N)=O)C(=O)N[C@@H](CCCCN)C(=O)N3)NC(=O)[C@H](CCCCN)NC(=O)[C@H](CCCCN)NC(=O)[C@H](CC(N)=O)NC(=O)[C@H](CCCC)NC2=O [Compound 136] (H-P[Nle]E[Nle]RCSLSVECKQKCLAAIGSIFGKC[Nle]NKKCKCYPR-OH; disulfide 6-27, 12-32, 16-34) | 6.24 nM
5 | CCCC[C@H](NC(=O)[C@@H]1CCCN1)C(=O)N[C@@H](CCC(=O)O)C(=O)N[C@@H](CCCC)C(=O)N[C@@H](CCCNC(=N)N)C(=O)N[C@H]1CSSC[C@@H]2NC(=O)[C@H](CCCCN)NC(=O)CNC(=O)[C@H](Cc3ccccc3)NC(=O)[C@H]([C@@H](C)CC)NC(=O)[C@H](CO)NC(=O)CNC(=O)[C@H]([C@@H](C)CC)NC(=O)[C@H](C)NC(=O)[C@H](C)NC(=O)[C@H](CC(C)C)NC(=O)[C@@H]3CSSC[C@@H](C(=O)N[C@@H](Cc4ccc(O)cc4)C(=O)N4CCC[C@H]4C(=O)N[C@@H](CCCNC(=N)N)C(=O)O)NC(=O)[C@H](CCCCN)NC(=O)[C@H](CSSC[C@H](NC(=O)[C@H](CCC(=O)O)NC(=O)[C@H](C(C)C)NC(=O)[C@@H]4CCCN4C(=O)[C@H](C)NC(=O)[C@H](CO)NC1=O)C(=O)N[C@@H](CCCCN)C(=O)N[C@@H](CCC(N)=O)C(=O)N[C@@H](CCCCN)C(=O)N3)NC(=O)[C@H](CCCCN)NC(=O)[C@H](CCCCN)NC(=O)[C@H](CC(N)=O)NC(=O)[C@H](CCCC)NC2=O [Compound 137] (H-P[Nle]E[Nle]RCSAPVECKQKCLAAIGSIFGKC[Nle]NKKCKCYPR-OH; disulfide 6-27, 12-32, 16-34) | 0.333 nM
6 | CCCC[C@H](NC(=O)[C@@H]1CCCN1)C(=O)N[C@@H](CCC(=O)O)C(=O)N[C@@H](CCCC)C(=O)N[C@@H](CCCNC(=N)N)C(=O)N[C@H]1CSSC[C@@H]2NC(=O)[C@H](CCCCN)NC(=O)CNC(=O)[C@H](Cc3ccccc3)NC(=O)[C@H]([C@@H](C)CC)NC(=O)[C@H](CO)NC(=O)CNC(=O)[C@H]([C@@H](C)CC)NC(=O)[C@H](C)NC(=O)[C@H](C)NC(=O)[C@H](CC(C)C)NC(=O)[C@@H]3CSSC[C@@H](C(=O)N[C@@H](Cc4ccc(O)cc4)C(=O)N4CCC[C@H]4C(=O)N[C@@H](CCCNC(=N)N)C(=O)O)NC(=O)[C@H](CCCCN)NC(=O)[C@H](CSSC[C@H](NC(=O)[C@H](CCC(=O)O)NC(=O)[C@@H]4CCCN4C(=O)[C@H](CO)NC(=O)[C@H](C)NC(=O)[C@H](CO)NC1=O)C(=O)N[C@@H](CCCCN)C(=O)N[C@@H](CCC(N)=O)C(=O)N[C@@H](CCCCN)C(=O)N3)NC(=O)[C@H](CCCCN)NC(=O)[C@H](CCCCN)NC(=O)[C@H](CC(N)=O)NC(=O)[C@H](CCCC)NC2=O [Compound 138] (H-P[Nle]E[Nle]RCSASPECKQKCLAAIGSIFGKC[Nle]NKKCKCYPR-OH; disulfide 6-27, 12-32, 16-34) | 0.228 nM
7 | CCCC[C@H](NC(=O)[C@@H]1CCCN1)C(=O)N[C@@H](CCC(=O)O)C(=O)N[C@@H](CCCC)C(=O)N[C@@H](CCCNC(=N)N)C(=O)N[C@H]1CSSC[C@@H]2NC(=O)[C@H](CCCCN)NC(=O)CNC(=O)[C@H](Cc3ccccc3)NC(=O)[C@H]([C@@H](C)CC)NC(=O)[C@H](CO)NC(=O)CNC(=O)[C@H]([C@@H](C)CC)NC(=O)[C@H](C)NC(=O)[C@H](C)NC(=O)[C@H](CC(C)C)NC(=O)[C@@H]3CSSC[C@@H](C(=O)N[C@@H](Cc4ccc(O)cc4)C(=O)N4CCC[C@H]4C(=O)N[C@@H](CCCNC(=N)N)C(=O)O)NC(=O)[C@H](CCCCN)NC(=O)[C@H](CSSC[C@H](NC(=O)[C@H](CCC(=O)O)NC(=O)[C@H](CCC(N)=O)NC(=O)[C@H](CO)NC(=O)[C@H](C)NC(=O)[C@H](CO)NC1=O)C(=O)N[C@@H](CCCCN)C(=O)N[C@@H](CCC(N)=O)C(=O)N[C@@H](CCCCN)C(=O)N3)NC(=O)[C@H](CCCCN)NC(=O)[C@H](CCCCN)NC(=O)[C@H](CC(N)=O)NC(=O)[C@H](CCCC)NC2=O [Compound 139] (H-P[Nle]E[Nle]RCSASQECKQKCLAAIGSIFGKC[Nle]NKKCKCYPR-OH; disulfide 6-27, 12-32, 16-34) | 0.453 nM
8 | CCCC[C@H](NC(=O)[C@@H]1CCCN1)C(=O)N[C@@H](CCC(=O)O)C(=O)N[C@@H](CCCC)C(=O)N[C@@H](CCCNC(=N)N)C(=O)N[C@H]1CSSC[C@@H]2NC(=O)[C@H](CCCCN)NC(=O)CNC(=O)[C@H](Cc3ccccc3)NC(=O)[C@H]([C@@H](C)CC)NC(=O)[C@H](CO)NC(=O)CNC(=O)[C@H]([C@@H](C)CC)NC(=O)[C@H](C)NC(=O)[C@H](C)NC(=O)[C@H](CC(C)C)NC(=O)[C@@H]3CSSC[C@@H](C(=O)N[C@@H](Cc4ccc(O)cc4)C(=O)N4CCC[C@H]4C(=O)N[C@@H](CCCNC(=N)N)C(=O)O)NC(=O)[C@H](CCCCN)NC(=O)[C@H](CSSC[C@H](NC(=O)[C@H](CCC(=O)O)NC(=O)[C@H](C(C)C)NC(=O)[C@H](CO)NC(=O)[C@H](C)NC(=O)[C@H](CO)NC1=O)C(=O)N[C@@H](CC(C)C)C(=O)N[C@@H](CCC(N)=O)C(=O)N[C@@H](CCCCN)C(=O)N3)NC(=O)[C@H](CCCCN)NC(=O)[C@H](CCCCN)NC(=O)[C@H](CC(N)=O)NC(=O)[C@H](CCCC)NC2=O [Compound 140] (H-P[Nle]E[Nle]RCSASVECLQKCLAAIGSIFGKC[Nle]NKKCKCYPR-OH; disulfide 6-27, 12-32, 16-34) | 3.57 nM
